This assay has as its target T1, C-SfruOR13 (SfruOR13 from the C-strain) (Spodoptera frugiperda, UniProt A0A9R0CXR4).
T1 construct: gene LOC118264496; full-length ORF (435 residues), synthesized, pUAST.attB; expressed in Drosophila at1 trichoid OSNs (Or67d-GAL4) replacing OR67d; Orco is that of the fly host; with Odorant receptor coreceptor (endogenous, Drosophila melanogaster)
T1 sequence (A0A9R0CXR4 1-435): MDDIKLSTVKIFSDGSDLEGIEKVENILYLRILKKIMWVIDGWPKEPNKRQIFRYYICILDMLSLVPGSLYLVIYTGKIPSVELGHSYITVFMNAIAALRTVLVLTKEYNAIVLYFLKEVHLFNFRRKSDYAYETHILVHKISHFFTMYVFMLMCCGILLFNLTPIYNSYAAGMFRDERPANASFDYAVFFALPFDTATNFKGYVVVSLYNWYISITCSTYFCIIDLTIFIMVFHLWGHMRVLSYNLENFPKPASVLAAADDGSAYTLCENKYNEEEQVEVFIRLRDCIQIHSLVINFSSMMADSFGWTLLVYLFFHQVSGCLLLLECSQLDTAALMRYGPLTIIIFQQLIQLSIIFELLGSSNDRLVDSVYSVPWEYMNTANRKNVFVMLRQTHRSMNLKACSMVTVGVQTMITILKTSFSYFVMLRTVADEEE
T1 sequence (Q9VNB5 1-486 partner): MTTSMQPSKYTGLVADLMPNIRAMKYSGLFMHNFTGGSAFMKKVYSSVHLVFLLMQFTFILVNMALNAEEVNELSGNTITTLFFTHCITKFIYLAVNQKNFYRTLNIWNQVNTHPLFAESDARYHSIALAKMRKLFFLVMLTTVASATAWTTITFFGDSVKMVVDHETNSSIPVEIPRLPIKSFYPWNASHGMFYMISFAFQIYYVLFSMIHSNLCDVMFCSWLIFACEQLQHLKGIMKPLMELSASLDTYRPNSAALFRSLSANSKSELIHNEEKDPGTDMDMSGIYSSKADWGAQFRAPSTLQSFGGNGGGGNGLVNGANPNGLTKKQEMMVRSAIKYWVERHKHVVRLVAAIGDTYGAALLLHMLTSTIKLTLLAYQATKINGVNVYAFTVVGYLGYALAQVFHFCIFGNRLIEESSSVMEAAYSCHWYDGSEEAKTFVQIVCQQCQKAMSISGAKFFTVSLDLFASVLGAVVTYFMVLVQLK
Briefly: single-sensillum recording, Drosophila at1 OSNs, dose-response. It counts as cell-based. To be noted: agonist; vapour stimulus, 10 ng to 10 µg loaded on filter paper in hexane.

Take `CCCC/C=C\CCCCCCCCOC(C)=O` [(Z)-9-14:OAc, (Z)-9-tetradecenyl acetate]: the “single-sensillum recording, Drosophila at1 OSNs, dose-response” value is “C-SfruOR13 was significantly activated by the same three compounds that elicited a response in R-SfruOR13”.

The values are drawn from PMC11943435, “Functional Investigation of the Receptor to the Major Pheromone Component in the C-Strain and the R-Strain of the Fall Armyworm Spodoptera frugiperda” (Insects, 2025).
